Measured values from ChEMBL document CHEMBL1201862, “PubChem BioAssay data set” (2004).
The source made the active and inactive calls.

Experiments:
Cytochrome P450 2C9 = Cytochrome P450 2C9 (Homo sapiens, UniProt P11712)
Cytochrome P450 2D6 = Cytochrome P450 2D6 (Homo sapiens, UniProt P10635);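 also: CYP2D6 member of a cytochrome P450 panel assay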
Cytochrome P450 3A4 = Cytochrome P450 3A4 (Homo sapiens, UniProt P08684);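 also: CYP3A4 tested as one member of a cytochrome P450 panel screen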
Fatty acid synthase [1] = molecular target: T1, Fatty acid synthase (Homo sapiens, UniProt P49327); test: FAS thioesterase domain inhibitors, dose response, biochemical, kinetic fluorescence intensity (AID 624326); assay type: functional;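 also: rate of fluorescence rise from hydrolysis of a fluorogenic O-methyl fluorescein ester substrate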
T1 sequence (P49327 whole entry, the tested form may be a part): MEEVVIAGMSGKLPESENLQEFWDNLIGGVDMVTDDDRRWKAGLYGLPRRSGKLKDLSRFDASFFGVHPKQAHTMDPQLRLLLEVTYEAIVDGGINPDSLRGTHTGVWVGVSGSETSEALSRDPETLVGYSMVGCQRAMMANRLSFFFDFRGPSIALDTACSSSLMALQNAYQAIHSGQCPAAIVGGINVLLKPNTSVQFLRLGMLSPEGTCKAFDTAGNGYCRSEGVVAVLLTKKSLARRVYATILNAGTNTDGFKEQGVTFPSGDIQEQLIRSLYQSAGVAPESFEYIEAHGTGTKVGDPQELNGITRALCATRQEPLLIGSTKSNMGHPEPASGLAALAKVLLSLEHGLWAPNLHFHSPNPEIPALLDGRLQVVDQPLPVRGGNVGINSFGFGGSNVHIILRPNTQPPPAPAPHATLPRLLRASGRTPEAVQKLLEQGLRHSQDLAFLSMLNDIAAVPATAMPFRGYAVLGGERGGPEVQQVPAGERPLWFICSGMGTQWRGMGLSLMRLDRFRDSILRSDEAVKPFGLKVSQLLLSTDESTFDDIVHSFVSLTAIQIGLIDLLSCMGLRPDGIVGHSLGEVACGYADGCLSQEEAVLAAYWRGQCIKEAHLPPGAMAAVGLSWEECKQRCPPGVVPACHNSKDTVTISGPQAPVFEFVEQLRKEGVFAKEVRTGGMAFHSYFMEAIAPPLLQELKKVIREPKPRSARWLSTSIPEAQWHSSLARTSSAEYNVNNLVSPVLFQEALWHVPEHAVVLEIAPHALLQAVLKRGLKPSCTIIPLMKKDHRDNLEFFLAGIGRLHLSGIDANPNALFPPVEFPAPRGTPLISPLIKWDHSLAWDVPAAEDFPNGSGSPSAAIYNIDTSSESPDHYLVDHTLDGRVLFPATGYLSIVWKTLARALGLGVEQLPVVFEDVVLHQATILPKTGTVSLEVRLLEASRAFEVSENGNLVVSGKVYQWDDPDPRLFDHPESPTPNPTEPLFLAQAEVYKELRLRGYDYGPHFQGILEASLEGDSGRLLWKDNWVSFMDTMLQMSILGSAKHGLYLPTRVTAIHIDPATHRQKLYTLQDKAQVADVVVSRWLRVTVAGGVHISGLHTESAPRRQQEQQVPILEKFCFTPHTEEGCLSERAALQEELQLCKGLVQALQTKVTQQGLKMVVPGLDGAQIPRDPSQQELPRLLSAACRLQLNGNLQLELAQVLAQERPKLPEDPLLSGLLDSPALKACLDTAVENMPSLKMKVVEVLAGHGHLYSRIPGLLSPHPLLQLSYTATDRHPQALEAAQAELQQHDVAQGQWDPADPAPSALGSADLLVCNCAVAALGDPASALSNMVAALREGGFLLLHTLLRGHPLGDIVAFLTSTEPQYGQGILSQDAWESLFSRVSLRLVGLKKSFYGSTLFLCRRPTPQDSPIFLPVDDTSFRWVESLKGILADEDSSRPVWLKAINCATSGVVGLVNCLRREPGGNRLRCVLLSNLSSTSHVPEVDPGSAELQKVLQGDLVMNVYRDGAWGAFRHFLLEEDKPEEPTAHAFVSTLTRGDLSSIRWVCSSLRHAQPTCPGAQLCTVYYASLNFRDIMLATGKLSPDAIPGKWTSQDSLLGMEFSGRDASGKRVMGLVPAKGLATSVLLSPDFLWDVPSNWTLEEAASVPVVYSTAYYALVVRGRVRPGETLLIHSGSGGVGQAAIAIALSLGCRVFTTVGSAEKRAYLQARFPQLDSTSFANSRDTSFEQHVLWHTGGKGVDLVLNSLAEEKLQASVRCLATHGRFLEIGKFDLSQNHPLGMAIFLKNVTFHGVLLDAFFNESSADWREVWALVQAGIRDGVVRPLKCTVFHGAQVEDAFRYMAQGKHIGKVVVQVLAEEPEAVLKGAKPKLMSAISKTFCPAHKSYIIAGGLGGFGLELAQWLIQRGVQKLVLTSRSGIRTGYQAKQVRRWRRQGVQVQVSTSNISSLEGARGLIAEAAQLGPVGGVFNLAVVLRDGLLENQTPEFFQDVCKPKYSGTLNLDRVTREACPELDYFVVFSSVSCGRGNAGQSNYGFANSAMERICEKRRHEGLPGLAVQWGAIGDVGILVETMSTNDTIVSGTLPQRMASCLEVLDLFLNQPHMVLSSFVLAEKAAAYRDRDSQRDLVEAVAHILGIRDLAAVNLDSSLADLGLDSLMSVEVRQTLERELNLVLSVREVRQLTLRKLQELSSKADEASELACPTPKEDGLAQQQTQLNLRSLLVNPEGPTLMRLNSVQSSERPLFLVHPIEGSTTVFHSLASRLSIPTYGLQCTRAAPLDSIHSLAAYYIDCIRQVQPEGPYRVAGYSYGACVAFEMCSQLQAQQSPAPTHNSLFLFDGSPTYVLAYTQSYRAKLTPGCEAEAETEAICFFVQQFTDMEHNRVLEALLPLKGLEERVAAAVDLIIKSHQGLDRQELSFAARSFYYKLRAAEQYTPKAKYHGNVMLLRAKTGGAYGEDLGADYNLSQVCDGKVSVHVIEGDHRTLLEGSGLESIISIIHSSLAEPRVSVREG

Fatty acid synthase [2] = molecular target: T1, Fatty acid synthase; test: FAS thioesterase domain inhibitors, dose response, biochemical, endpoint fluorescence intensity, uHTS hits (AID 624327); assay type: functional;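 also: fluorescence from hydrolysis of an O-methyl fluorescein acyl ester substrate by the enzyme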
Cytochrome P450 2C19 = Cytochrome P450 2C19 (Homo sapiens, UniProt P33261); test: Cytochrome panel assay with activity outcomes. Panel member name: p450-cyp2c19 Compounds with AC50 equal or less than 10 uM are considered active; assay type: functional; details: read-out: AC50
Cytochrome P450 2C19, sequence (P33261 whole entry): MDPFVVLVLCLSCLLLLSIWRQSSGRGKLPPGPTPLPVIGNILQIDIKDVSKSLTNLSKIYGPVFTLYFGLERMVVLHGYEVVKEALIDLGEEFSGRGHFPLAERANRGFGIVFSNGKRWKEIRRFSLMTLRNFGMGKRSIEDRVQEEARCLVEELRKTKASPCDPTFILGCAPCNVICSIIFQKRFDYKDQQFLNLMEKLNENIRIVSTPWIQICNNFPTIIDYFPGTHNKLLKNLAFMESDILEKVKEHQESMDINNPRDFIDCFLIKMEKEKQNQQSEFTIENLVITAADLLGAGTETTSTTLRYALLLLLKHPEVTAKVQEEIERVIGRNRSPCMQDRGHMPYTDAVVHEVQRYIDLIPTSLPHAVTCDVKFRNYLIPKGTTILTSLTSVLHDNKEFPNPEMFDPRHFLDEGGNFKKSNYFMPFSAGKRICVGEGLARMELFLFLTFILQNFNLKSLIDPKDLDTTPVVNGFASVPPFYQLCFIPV

Large T antigen = Large T antigen (Simian virus 40, UniProt P03070); assay type: functional, Betapolyomavirus macacae;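 also: Confirmatory-stage PubChem screen for compounds that inhibit SV40 T antigen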
Large T antigen, sequence (P03070 whole entry, the tested form may be a part): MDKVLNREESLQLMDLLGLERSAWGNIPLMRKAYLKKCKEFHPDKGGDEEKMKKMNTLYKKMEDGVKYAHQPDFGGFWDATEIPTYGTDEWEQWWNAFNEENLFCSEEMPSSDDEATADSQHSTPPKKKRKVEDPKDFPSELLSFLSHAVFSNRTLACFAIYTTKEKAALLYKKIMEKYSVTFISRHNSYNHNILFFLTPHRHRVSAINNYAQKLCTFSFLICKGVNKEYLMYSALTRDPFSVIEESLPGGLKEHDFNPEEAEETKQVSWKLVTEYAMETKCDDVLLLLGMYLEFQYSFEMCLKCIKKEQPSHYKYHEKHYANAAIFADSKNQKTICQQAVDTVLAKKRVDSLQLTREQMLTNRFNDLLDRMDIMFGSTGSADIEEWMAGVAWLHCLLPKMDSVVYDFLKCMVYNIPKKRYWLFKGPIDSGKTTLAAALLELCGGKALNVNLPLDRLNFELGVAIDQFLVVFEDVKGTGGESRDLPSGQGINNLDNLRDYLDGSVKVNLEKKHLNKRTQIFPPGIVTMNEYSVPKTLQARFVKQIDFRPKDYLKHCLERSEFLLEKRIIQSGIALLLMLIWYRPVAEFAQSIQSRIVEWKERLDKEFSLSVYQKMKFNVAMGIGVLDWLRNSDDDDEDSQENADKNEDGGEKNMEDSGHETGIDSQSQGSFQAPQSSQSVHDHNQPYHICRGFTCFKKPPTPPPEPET

[3] = molecular target: T2, RNA-binding protein pos-1 (Caenorhabditis elegans, UniProt G5EF15); test: inhibitors of POS-1/mex-3 RNA binding, dose response, biochemical, fluorescence polarization (AID 1964);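 also: purified POS-1 fused to maltose binding protein made in E. coli; potency of compounds blocking POS-1 binding to fluorescent RNA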
T2 sequence (G5EF15 whole entry): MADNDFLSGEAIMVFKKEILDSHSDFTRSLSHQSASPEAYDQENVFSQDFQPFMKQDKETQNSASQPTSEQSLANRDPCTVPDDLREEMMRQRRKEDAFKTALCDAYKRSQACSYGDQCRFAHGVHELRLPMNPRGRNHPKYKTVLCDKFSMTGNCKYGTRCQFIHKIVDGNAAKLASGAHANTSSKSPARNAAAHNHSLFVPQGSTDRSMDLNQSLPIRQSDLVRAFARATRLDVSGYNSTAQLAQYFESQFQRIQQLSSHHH

[4] = molecular target: T3, Zinc finger protein mex-5 (Caenorhabditis elegans, UniProt Q9XUB2); test: MEX-5/TCR-2 RNA interaction inhibitors, dose response, biochemical, C. elegans, fluorescence polarization (AID 1960)
T3 sequence (Q9XUB2 whole entry): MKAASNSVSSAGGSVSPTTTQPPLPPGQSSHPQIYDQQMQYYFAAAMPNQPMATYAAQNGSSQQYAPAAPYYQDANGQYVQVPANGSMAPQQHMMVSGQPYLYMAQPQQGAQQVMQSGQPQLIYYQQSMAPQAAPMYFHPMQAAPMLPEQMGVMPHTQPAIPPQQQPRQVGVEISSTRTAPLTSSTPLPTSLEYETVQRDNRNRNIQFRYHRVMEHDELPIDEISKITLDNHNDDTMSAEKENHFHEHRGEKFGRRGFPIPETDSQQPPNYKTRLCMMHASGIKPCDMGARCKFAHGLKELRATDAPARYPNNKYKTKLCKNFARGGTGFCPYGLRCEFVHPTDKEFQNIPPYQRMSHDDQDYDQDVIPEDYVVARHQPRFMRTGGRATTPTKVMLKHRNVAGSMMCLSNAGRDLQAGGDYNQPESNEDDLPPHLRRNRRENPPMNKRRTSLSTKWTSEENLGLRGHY

[5] = molecular target: T4, Corticotropin-releasing factor receptor 2/Corticotropin-releasing factor-binding protein (Homo sapiens, UniProt P24387+Q13324); test: activators of CRF receptor 2 with binding protein – uHTS hits, confirmation (AID 602473); assay type: functional; details: read-out: EC50_Mean
T4 sequence (Q13324 whole entry): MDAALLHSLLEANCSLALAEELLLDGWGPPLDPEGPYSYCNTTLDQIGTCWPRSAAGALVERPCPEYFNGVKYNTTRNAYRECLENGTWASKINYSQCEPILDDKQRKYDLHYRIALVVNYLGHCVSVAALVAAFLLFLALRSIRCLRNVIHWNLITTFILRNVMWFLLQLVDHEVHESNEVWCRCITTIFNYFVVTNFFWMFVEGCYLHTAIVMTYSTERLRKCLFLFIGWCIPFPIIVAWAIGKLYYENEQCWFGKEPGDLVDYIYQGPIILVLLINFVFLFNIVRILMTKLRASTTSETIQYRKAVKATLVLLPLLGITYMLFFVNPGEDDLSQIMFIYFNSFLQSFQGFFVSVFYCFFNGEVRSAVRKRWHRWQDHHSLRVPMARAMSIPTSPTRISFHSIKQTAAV
T4 sequence (P24387 whole entry): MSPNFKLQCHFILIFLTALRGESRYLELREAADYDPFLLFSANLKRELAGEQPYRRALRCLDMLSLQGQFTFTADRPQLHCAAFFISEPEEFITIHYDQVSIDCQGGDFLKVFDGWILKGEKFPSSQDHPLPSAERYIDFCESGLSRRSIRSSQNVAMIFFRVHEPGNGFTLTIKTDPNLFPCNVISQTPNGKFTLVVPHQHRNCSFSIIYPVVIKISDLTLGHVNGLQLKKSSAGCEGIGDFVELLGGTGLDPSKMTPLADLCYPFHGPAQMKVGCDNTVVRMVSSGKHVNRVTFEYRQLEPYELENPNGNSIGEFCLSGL

[6] = control 3'UTR Renilla luciferase suppression, dose response, counter-screen for Shn3 inhibitor project, cell-based, Clone20-Shn3RL, cherry-picked (AID 624133); assay type: functional
[7] = Shn3 3'UTR reporter inhibitors, dose response, cell-based, Clone20 osteoblasts, firefly luciferase, cherry-picked (AID 624132); assay type: functional;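 also: firefly luciferase luminescence from reporter carrying the Shn3 3'UTR in osteoblasts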
[8] = molecular target: T5, Rac GTPase-activating protein 1 (Homo sapiens, UniProt Q9H0H5); test: MgcRacGAP GTPase-activating activity inhibitors, confirmation, biochemical, ADP Hunter fluorescence, primary and confirmatory (AID 624330); assay type: functional
T5 sequence (Q9H0H5 whole entry): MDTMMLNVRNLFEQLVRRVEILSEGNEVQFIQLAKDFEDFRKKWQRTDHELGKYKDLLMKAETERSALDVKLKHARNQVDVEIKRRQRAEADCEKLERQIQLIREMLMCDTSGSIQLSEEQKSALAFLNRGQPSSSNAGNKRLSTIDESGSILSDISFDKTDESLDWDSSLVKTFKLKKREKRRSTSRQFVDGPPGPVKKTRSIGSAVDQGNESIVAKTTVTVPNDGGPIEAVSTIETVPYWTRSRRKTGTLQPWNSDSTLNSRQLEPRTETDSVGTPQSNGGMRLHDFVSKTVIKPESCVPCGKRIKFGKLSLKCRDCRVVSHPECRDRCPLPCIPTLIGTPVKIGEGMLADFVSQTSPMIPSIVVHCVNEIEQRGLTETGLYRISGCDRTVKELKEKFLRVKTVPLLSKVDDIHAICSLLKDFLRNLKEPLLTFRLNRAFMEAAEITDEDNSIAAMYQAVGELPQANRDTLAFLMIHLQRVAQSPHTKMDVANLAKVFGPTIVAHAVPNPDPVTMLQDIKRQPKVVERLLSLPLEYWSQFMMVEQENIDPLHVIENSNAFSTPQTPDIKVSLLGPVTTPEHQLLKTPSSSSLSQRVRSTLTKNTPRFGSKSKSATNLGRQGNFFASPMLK

Cytochrome P450 2D6, sequence (P10635 whole entry): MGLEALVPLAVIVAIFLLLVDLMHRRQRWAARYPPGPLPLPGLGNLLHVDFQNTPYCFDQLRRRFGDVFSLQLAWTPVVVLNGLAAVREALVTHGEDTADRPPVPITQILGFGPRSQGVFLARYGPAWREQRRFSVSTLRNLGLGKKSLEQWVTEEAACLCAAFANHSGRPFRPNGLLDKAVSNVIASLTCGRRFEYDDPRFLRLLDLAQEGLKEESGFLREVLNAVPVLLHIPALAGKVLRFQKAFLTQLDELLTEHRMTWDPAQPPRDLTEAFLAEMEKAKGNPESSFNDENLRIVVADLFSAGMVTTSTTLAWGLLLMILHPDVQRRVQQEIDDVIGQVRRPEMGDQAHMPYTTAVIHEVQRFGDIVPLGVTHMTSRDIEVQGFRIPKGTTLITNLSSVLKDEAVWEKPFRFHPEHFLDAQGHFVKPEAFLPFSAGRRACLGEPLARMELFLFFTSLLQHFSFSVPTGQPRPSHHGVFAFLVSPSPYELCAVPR
Cytochrome P450 3A4, sequence (P08684 whole entry, the tested form may be a part): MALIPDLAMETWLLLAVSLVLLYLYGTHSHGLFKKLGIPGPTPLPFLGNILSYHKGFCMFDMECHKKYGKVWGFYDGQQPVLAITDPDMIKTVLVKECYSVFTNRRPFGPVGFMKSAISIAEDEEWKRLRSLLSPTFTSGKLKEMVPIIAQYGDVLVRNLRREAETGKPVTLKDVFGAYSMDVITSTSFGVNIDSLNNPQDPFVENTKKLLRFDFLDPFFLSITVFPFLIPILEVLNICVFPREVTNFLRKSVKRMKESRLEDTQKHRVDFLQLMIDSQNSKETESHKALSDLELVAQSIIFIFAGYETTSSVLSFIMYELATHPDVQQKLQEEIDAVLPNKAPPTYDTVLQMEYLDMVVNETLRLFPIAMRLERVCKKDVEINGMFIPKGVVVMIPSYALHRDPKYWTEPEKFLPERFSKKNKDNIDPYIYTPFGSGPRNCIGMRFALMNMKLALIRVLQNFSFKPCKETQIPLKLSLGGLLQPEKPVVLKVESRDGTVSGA

With `C=CCN(CC=C)C(=O)C(=O)c1cc(C)n(-c2ccc([N+](=O)[O-])cc2)c1C` the AC50 (Cytochrome P450 2C9) was 15.8 µM (inconclusive) and the AC50 (Cytochrome P450 2D6) was 3.98 µM (inconclusive).
With `CCOC(=O)CC(=O)CSc1n[nH]c2c3ccccc3nc-2n1` the AC50 (Cytochrome P450 3A4) was 2.51 µM (inconclusive) and the AC50 (Cytochrome P450 2D6) was 3.55 µM (inconclusive).
In the case of `CCN1C(=O)[C@H]2[C@@H](c3ccc(C)cc3)N3C(=O)N(c4cccc(Cl)c4)C(=O)[C@@]3(Cc3ccc(Cl)cc3)[C@H]2C1=O`, the IC50 (Fatty acid synthase [1]) was 16.1 µM (active) and the IC50 (Fatty acid synthase [2]) was 12 µM (active).
For `CNc1ncnc2ccc(-c3cccc(NS(C)(=O)=O)c3)cc12`, the AC50 (Cytochrome P450 2C19) was 20 µM (inconclusive) and the AC50 (Cytochrome P450 2D6) was 39.8 µM (inconclusive).
In the case of `CCCCC(=O)NCCc1c(Cc2ccccc2)[nH]c2ccccc12`, the AC50 (Cytochrome P450 2C19) was 20 µM (inconclusive) and the AC50 (Cytochrome P450 2D6) was 39.8 µM (inconclusive).
In the case of `O=C1CC(=O)N(Cc2ccco2)C(=S)N1`, the IC50 (Large T antigen) was 55.5 µM (active).
In the case of `Cc1c(N2CCCC2)cc2c(c1NC(=O)c1ccccc1Cl)C(C)(C)CC2(C)C`, the AC50 (Cytochrome P450 3A4) was 0.631 µM (inconclusive) and the AC50 (Cytochrome P450 2D6) was 3.16 µM (inconclusive).
For `CC1CCCN(c2ccc(N)cc2C(N)=O)C1` (stereo not drawn), the IC50 (Large T antigen) was 44.6 µM (active).
With `COc1cc(/C=C2/C(C)=C(C#N)c3nc(N)c(C#N)c(C)c32)ccc1OCC(=O)O` the IC50 (Large T antigen) was 89.5 µM (active).
With `C#CCOC(=O)NC(/C=C/CCCC)c1ccccc1` (stereo not drawn) the AC50 (Cytochrome P450 2C19) was 25.1 µM (inconclusive) and the AC50 (Cytochrome P450 2D6) was 20 µM (inconclusive).
For `COc1cccc(C(=O)NC2CC3CCCC(C2)N3CC(=O)Nc2ccc(N(C)C)cc2)c1` (stereo not drawn), the IC50 (Large T antigen) was 6.24 µM (active).
With `O=C(O)C(=O)/C(=C\c1cccc2ccccc12)c1ccc2ccccc2n1` the EC50 [3] was 164 µM (active), the EC50 [4] was 34.2 µM (active) and the EC50 [5] was 7.6 µM (active).
In the case of `CCn1c(SCC(=O)Nc2ncc(C(F)(F)F)cc2Cl)nnc1-c1cccc(C)c1`, the IC50 (Fatty acid synthase [1]) was 3.94 µM (active) and the IC50 (Fatty acid synthase [2]) was 3.66 µM (active).
In the case of `CCCSc1nnc2nc3c(nn12)c1ccccc1n3C`, the EC50 [3] was > 300 µM (not active) and the EC50 [4] was 76.6 µM (active).
In the case of `COc1cc(OC)c(C2CC(=O)N3CN(c4ccccc4C)CSC3=C2C#N)cc1OC` (stereo not drawn), the IC50 (Large T antigen) was 54.8 µM (active).
For `O=C(Nc1ccc(O)cc1)c1ccc2c(c1)C(=O)N(N1C(=O)c3ccccc3C1=O)C2=O`, the IC50 (Large T antigen) was 21.4 µM (active).
With `COc1ccc(NC2CCCN(C(=O)CCCn3cncn3)C2)cc1` (stereo not drawn) the IC50 (Large T antigen) was 52.6 µM (active).
In the case of `O=C(NCc1ccc2c(c1)OCO2)c1cc([N+](=O)[O-])ccc1N1CCCCC1`, the IC50 (Fatty acid synthase [1]) was 5.03 µM (active) and the IC50 (Fatty acid synthase [2]) was 10.5 µM (active).
In the case of `CN1C(=O)/C(=C\c2ccc(N3CCCCC3)o2)C(=O)NC1=S`, the EC50 [3] was > 300 µM (not active) and the EC50 [4] was > 300 µM (not active).
In the case of `FC(F)(F)c1nc(N2CCCC2)ncc1-c1nnnn1-c1ccccc1`, the AC50 (Cytochrome P450 2D6) was 12.6 µM (inconclusive).
In the case of `CCOc1ccc(NC(=O)CN(c2ccc([N+](=O)[O-])cc2)S(=O)(=O)c2ccccc2)cc1`, the IC50 (Fatty acid synthase [1]) was 7.65 µM (active) and the IC50 (Fatty acid synthase [2]) was 10.5 µM (active).
With `CC(C)(C)NS(=O)(=O)c1ccc(NC(=O)NC2CCCCC2)cc1` the AC50 (Cytochrome P450 2C19) was 25.1 µM (inconclusive) and the AC50 (Cytochrome P450 2D6) was 17.8 µM (inconclusive).
In the case of `COc1ccc([N+](=O)[O-])cc1NC(=O)c1ccc(N(Cc2ccccc2C)S(C)(=O)=O)cc1`, the IC50 (Fatty acid synthase [1]) was 6.91 µM (active) and the IC50 (Fatty acid synthase [2]) was 9.88 µM (active).
In the case of `Cc1cc2c3c(c1C)C1(C(=O)N3C(C)(C)CC2C)C(C#N)=C(N)OC2=C1C(=O)CC(C)(C)C2` (stereo not drawn), the EC50 [3] was > 300 µM (not active) and the EC50 [4] was > 300 µM (not active).
For `CCOC(=O)C1CCN(C(=O)c2ccc(OCC(=O)Nc3cccc(C(F)(F)F)c3)c(OC)c2)CC1`, the AC50 [6] was 4.69 µM (active) and the AC50 [7] was 1.75 µM (active).
For `O=C(Cc1ccc(S(=O)(=O)N2CCOCC2)s1)N1CCN(S(=O)(=O)c2ccccc2[N+](=O)[O-])CC1`, the IC50 (Fatty acid synthase [1]) was 3.36 µM (active) and the IC50 (Fatty acid synthase [2]) was 0.241 µM (active).
For `CCN(CC)C(=O)C1=C(C)N(Cc2ccc(F)cc2)C(=O)C(CC(=O)NC(c2ccccc2)c2ccccc2)C1` (stereo not drawn), the IC50 (Fatty acid synthase [1]) was 7.98 µM (active) and the IC50 (Fatty acid synthase [2]) was 9.6 µM (active).
In the case of `Fc1c(F)c(F)c(N/N=C/c2c[nH]c3ccccc23)c(F)c1F`, the IC50 (Fatty acid synthase [1]) was 12.4 µM (active) and the IC50 (Fatty acid synthase [2]) was 11.5 µM (active).
In the case of `Sc1nnc(COc2ccccc2)n1/N=C/C=C/c1ccco1`, the IC50 (Large T antigen) was > 100 µM (active).
For `CCOc1cc(/C=N/Nc2ncnc(Cl)c2N)ccc1O`, the IC50 (Large T antigen) was 6.12 µM (active) and the IC50 [8] was 25.2 µM (active).
With `COc1cc(C=C2C(=O)NC(=O)NC2=O)ccc1O` the IC50 (Large T antigen) was 28 µM (active).
